Laboratory results as given in US9206200B2, “N-linked lactam M1 receptor positive allosteric mogulators” (Merck Sharp & Dohme Corp., priority 2011, dated 2015).

target: T1, acetylcholine muscarinic M1 receptor (Homo sapiens, UniProt P11229); experiment: muscarinic FLIPR assay: intracellular calcium in CHOnfat/hM1 cells, potentiation of EC20 acetylcholine; assay type: cell-based; conditions: M1 Pot., Table 2; CHOnfat/hM1 cells, FLIPR, EC20 acetylcholine (3 nM final)
T1 construct: expressed in transfected cells; host or cells: CHOnfat cells (CHO cells with an NFAT reporter) expressing hM1, kept under Geneticin selection
T1 sequence (P11229 1-460): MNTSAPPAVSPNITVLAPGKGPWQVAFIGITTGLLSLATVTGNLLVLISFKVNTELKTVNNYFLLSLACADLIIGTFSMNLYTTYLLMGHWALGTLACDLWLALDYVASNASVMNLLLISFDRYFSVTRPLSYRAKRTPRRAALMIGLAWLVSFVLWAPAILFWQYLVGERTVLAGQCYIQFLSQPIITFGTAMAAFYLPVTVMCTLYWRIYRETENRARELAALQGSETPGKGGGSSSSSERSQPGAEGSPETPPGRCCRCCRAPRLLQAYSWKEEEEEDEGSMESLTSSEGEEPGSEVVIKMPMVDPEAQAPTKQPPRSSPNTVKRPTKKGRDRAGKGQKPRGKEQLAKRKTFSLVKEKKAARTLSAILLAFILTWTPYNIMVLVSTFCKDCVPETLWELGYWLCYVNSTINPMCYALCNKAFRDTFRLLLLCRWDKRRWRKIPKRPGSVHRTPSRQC
Procedure, shortened: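 CHOnfat cells stably expressing human M1, Fluo-4AM-loaded, in HBSS with 20 mM HEPES, 2.5 mM probenecid, 1% BSA. Compounds preincubated 4 min (printed "4 mM") before an EC20 acetylcholine challenge (3 nM final). FLIPR intracellular Ca²⁺ signal compared with 3 nM acetylcholine alone to detect potentiation.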

First: CN(C)C(=O)Oc1cccc(N2Cc3c(cc(CN4CCC(F)(C#N)CC4)c4cccnc34)C2=O)c1 [Example 129, 3-{5-[(4-cyano-4-fluoropiperidin-1-yl)methyl]-7-oxo-7,9-dihydro-8H-pyrrolo[3,4-h]quinolin-8-yl}phenyl dimethyl carbamate]
Second: C#CC1(F)CCN(Cc2cc3c(c4ncccc24)CN(c2cccc(OC(=O)N(C)C)c2)C3=O)CC1 [Example 130, 3-{5-[(4-ethynyl-4-fluoropiperidin-1-yl)methyl]-7-oxo-7,9-dihydro-8H-pyrrolo[3,4-h]quinolin-8-yl}phenyl dimethylcarbamate]
The EC50 of the first is 1.5-fold higher: 2.17 µM for the first, 1.43 µM for the second. The second is the more potent here.

same assay, conditions: Table 2; CHOnfat/hM1 cells, FLIPR, EC20 acetylcholine (3 nM final); read-out: M1 Pot.

Compared with `O=C1c2cc(CN3CCCC3)c3cccnc3c2CN1C1CCCCC1O` (stereo not drawn) [Example 97, 8-(2-hydroxycyclohexyl)-5-(pyrrolidin-1-ylmethyl)-8,9-dihydro-7H-pyrrolo[3,4-h]quinolin-7-one], `O=C1c2cc(CN3CCOCC3)c3cccnc3c2CN1C1CCCCC1O` (stereo not drawn) [Example 99, 8-(2-hydroxycyclohexyl)-5-(morpholin-4-ylmethyl)-8,9-dihydro-7H-pyrrolo[3,4-h]quinolin-7-one] is 35-fold lower in EC50: 5.2 µM for the first, 0.15 µM for the second.

Going from `O=C1c2cc(CN3CCC(F)(F)C3)c3cccnc3c2CN1C1CCCCC1O` (stereo not drawn) [Example 98, 5-[(3,3-difluoropyrrolidin-1-yl)methyl]-8-(2-hydroxycyclohexyl)-8,9-dihydro-7H-pyrrolo[3,4-h]quinolin-7-one] to `O=C1c2cc(CN3CCCC(F)(F)C3)c3cccnc3c2CN1C1CCCCC1O` (stereo not drawn) [Example 122, 5-[(3,3-difluoropiperidin-1-yl)methyl]-8-(2-hydroxycyclohexyl)-8,9-dihydro-7H-pyrrolo[3,4-h]quinolin-7-one], the EC50 falls from 0.151 µM to 0.086 µM (1.8-fold).

Going from `CC1(C)CCN(Cc2cc3c(c4ncccc24)CN(C2CCCCC2O)C3=O)CC1` (stereo not drawn) [Example 100, 5-[(4,4-dimethylpiperidin-1-yl)methyl]-8-(2-hydroxycyclohexyl)-8,9-dihydro-7H-pyrrolo[3,4-h]quinolin-7-one] to `CC1(O)CCN(Cc2cc3c(c4ncccc24)CN(C2CCCCC2O)C3=O)CC1` (stereo not drawn) [Example 101, 8-(2-hydroxycyclohexyl)-5-[(4-hydroxy-4-methylpiperidin-1-yl)methyl]-8,9-dihydro-7H-pyrrolo[3,4-h]quinolin-7-one], the EC50 rises from 0.43 µM to 0.93 µM (2.2-fold). The first is the more potent here.

Going from `CC1(F)CCN(Cc2cc3c(c4ncccc24)CN([C@H]2CCCC[C@@H]2O)C3=O)CC1` [Example 102, 5-[(4-fluoro-4-methylpiperidin-1-yl)methyl]-8-[(1S,2S)-2-hydroxycyclohexyl]-8,9-dihydro-7H-pyrrolo[3,4-h]quinolin-7-one] to `O=C1c2cc(CN3CCC(F)(F)CC3)c3cccnc3c2CN1C1CCCCC1O` (stereo not drawn) [Example 116, 5-[(4,4-difluoropiperidin-1-yl)methyl]-8-(2-hydroxycyclohexyl)-8,9-dihydro-7H-pyrrolo[3,4-h]quinolin-7-one], the EC50 falls from 0.25 µM to 0.021 µM (12-fold).

First: C#CC1(F)CCN(Cc2cc3c(c4ncccc24)CN([C@H]2CCCC[C@@H]2O)C3=O)CC1 [Example 103, 5-[(4-ethynyl-4-fluoropiperidin-1-yl)methyl]-8-[(1S,2S)-2-hydroxycyclohexyl]-8,9-dihydro-7H-pyrrolo[3,4-h]quinolin-7-one]
Second: N#CC1(F)CCN(Cc2cc3c(c4ncccc24)CN([C@H]2CCCC[C@@H]2O)C3=O)CC1 [Example 117, 4-fluoro-1-({8-[(1S,2S)-2-hydroxycyclohexyl]-7-oxo-8,9-dihydro-7H-pyrrolo[3,4-h]quinolin-5-yl}methyl)piperidine-4-carbonitrile]
The EC50 of the first is 3.5-fold lower: 0.011 µM for the first, 0.038 µM for the second. The first is the more potent here.

First: CC1c2c(cc(CN3CCC(F)(F)CC3)c3cccnc23)C(=O)N1[C@@H]1CCCC[C@@H]1O (stereo partly drawn) [Example 104, 5-[(4,4-difluoropiperidin-1-yl)methyl]-8-[(1R,2S)-2-hydroxycyclohexyl]-9-methyl-8,9-dihydro-7H-pyrrolo[3,4-h]quinolin-7-one]
Second: CCC1c2c(cc(CN3CCC(F)(F)CC3)c3cccnc23)C(=O)N1[C@@H]1CCCC[C@@H]1O (stereo partly drawn) [Example 105, 5-[(4,4-difluoropiperidin-1-yl)methyl]-9-ethyl-8-[(1R,2S)-2-hydroxycyclohexyl]-8,9-dihydro-7H-pyrrolo[3,4-h]quinolin-7-one]
The EC50 of the first is 1.5-fold higher: 0.015 µM for the first, 0.0099 µM for the second.

Going from `CC1c2c(cc(CN3CCC(F)(F)CC3)c3cccnc23)C(=O)N1[C@@H]1COCC[C@@H]1O` (stereo partly drawn) [Example 106, 1,5-anhydro-2,4-dideoxy-4-{5-[(4,4-difluoropiperidin-1-yl)methyl]-9-methyl-7-oxo-7,9-dihydro-8H-pyrrolo[3,4-h]quinolin-8-yl}-D-erythro-pentitol] to `CC1c2c(cc(CN3CCC(F)(F)CC3)c3cccnc23)C(=O)N1[C@@H]1CCOC[C@@H]1O` (stereo partly drawn) [Example 107, 1,5-anhydro-3,4-dideoxy-3-{5-[(4,4-difluoropiperidin-1-yl)methyl]-9-methyl-7-oxo-7,9-dihydro-8H-pyrrolo[3,4-h]quinolin-8-yl}-D-erythro-pentitol], the EC50 falls from 0.11 µM to 0.012 µM (9.2-fold).

Going from `CCC1c2c(cc(CN3CCC(F)(C#N)CC3)c3cccnc23)C(=O)N1[C@@H]1CCCC[C@@H]1O` (stereo partly drawn) [Example 120, 1-({9-ethyl-8-[(1R,2S)-2-hydroxycyclohexyl]-7-oxo-8,9-dihydro-7H-pyrrolo[3,4-h]quinolin-5-yl}methyl)-4-fluoropiperidine-4-carbonitrile] to `CC#CC1(F)CCN(Cc2cc3c(c4ncccc24)CN([C@H]2CCCC[C@@H]2O)C3=O)CC1` [Example 131, 5-[(4-fluoro-4-prop-1-yn-1-ylpiperidin-1-yl)methyl]-8-[(1S,2S)-2-hydroxycyclohexyl]-8,9-dihydro-7H-pyrrolo[3,4-h]quinolin-7-one], the EC50 rises from 0.021 µM to 0.033 µM (1.6-fold). The first is the more potent here.

Compared with `O=C1c2cc(CN3CCCC(F)C3)c3cccnc3c2CN1C1CCCCC1O` (stereo not drawn) [Example 121, 5-[(3-fluoropiperidin-1-yl)methyl]-8-(2-hydroxycyclohexyl)-8,9-dihydro-7H-pyrrolo[3,4-h]quinolin-7-one], `C#CC1CCN(Cc2cc3c(c4ncccc24)CN(C2CCCCC2O)C3=O)CC1` (stereo not drawn) [Example 124, 5-[(4-ethynylpiperidin-1-yl)methyl]-8-(2-hydroxycyclohexyl)-8,9-dihydro-7H-pyrrolo[3,4-h]quinolin-7-one] is 2.5-fold lower in EC50: 0.108 µM for the first, 0.044 µM for the second.

`O=C1c2cc(CN3CCC(C(F)(F)F)CC3)c3cccnc3c2CN1C1CCCCC1O` (stereo not drawn) [Example 123, 8-(2-hydroxycyclohexyl)-5-{[4-(trifluoromethyl)piperidin-1-yl]methyl}-8,9-dihydro-7H-pyrrolo[3,4-h]quinolin-7-one] and `CCCC#CC1(F)CCN(Cc2cc3c(c4ncccc24)CN([C@H]2CCCC[C@@H]2O)C3=O)CC1` [Example 125, 5-[(4-fluoro-4-pent-1-yn-1-ylpiperidin-1-yl)methyl]-8-[(1S,2S)-2-hydroxycyclohexyl]-8,9-dihydro-7H-pyrrolo[3,4-h]quinolin-7-one] are within 1.5-fold of each other in EC50: 0.097 µM for the first, 0.13 µM for the second.

Compared with `N#CC1(F)CCN(Cc2cc3c(c4ncccc24)CN(c2cccc(O)c2)C3=O)CC1` [Example 127, 4-fluoro-1-{[8-(3-hydroxyphenyl)-7-oxo-8,9-dihydro-7H-pyrrolo[3,4-h]quinolin-5-yl]methyl}piperidine-4-carbonitrile], `C#CC1(F)CCN(Cc2cc3c(c4ncccc24)CN(c2cccc(O)c2)C3=O)CC1` [Example 128, 5-[(4-ethynyl-4-fluoropiperidin-1-yl)methyl]-8-(3-hydroxyphenyl)-8,9-dihydro-7H-pyrrolo[3,4-h]quinolin-7-one] is 19-fold higher in EC50: 0.044 µM for the first, 0.843 µM for the second. The first is the more potent here.
